Experimental data taken from the supplement of paper PMC13380429.

Legend:
[1] = tested on: A549-ACE2 infected with SARS-CoV-2; test: cell count relative to DMSO; higher = less toxic; settings: 24 h
U2OS [2] = test: drug sensitivity score (DSS) for viability; higher = more toxic; extreme values may be limits of the assay; settings: 72 h
HepG2 [3] = test: as above; settings: 72 h
Vero E6 [4] = test: as above; settings: 72 h
Calu-3 [5] = test: as above; settings: 72 h
Caco-2 [6] = test: as above; settings: 72 h
[7] = tested on: A549-ACE2 infected with SARS-CoV-2; test: SARS-CoV-2 infection rate relative to DMSO; higher = more infection; settings: 24 h
A549-ACE2 [8] = test: drug-induced phospholipidosis relative to tamoxifen; higher = more phospholipidosis
[9] = tested on: A549-ACE2 infected with SARS-CoV-2; test: morphology score (similarity to uninfected cells); higher = more like uninfected cells; settings: 24 h
U2OS [10] = test: relative viability EC50 (midpoint between 100% and the lowest measured viability); higher = less toxic; settings: 72 h
HepG2 [11] = test: as above; settings: 72 h
Vero E6 [12] = test: as above; settings: 72 h
Calu-3 [13] = test: as above; settings: 72 h
Caco-2 [14] = test: as above; settings: 72 h
U2OS [15] = test: cell viability relative to DMSO; higher = less toxic; settings: 72 h
HepG2 [16] = test: as above; settings: 72 h
Vero E6 [17] = test: as above; settings: 72 h
Calu-3 [18] = test: as above; settings: 72 h
Caco-2 [19] = test: as above; settings: 72 h
A549-ACE2 [20] = test: phospholipidosis EC50; higher = less potent phospholipidosis inducer

COC(=O)[C@]12CCC(C)(C)C[C@H]1[C@H]1C(=O)C=C3[C@@]4(C)C=C(C#N)C(=O)C(C)(C)[C@@H]4CC[C@@]3(C)[C@]1(C)CC2 [Bardoxolone Methyl]
cell count ([1]; 0.3 µM): 97% | cell count ([1]; 3 µM): 5% | drug sensitivity score (U2OS [2]): 18.4 | drug sensitivity score (HepG2 [3]): 19.4 | drug sensitivity score (Vero E6 [4]): 18.3 | drug sensitivity score (Calu-3 [5]): 15.4 | drug sensitivity score (Caco-2 [6]): 17.5 | SARS-CoV-2 infection rate ([7]; 0.3 µM): 98% | SARS-CoV-2 infection rate ([7]; 3 µM): 61% | drug-induced phospholipidosis (A549-ACE2 [8]; 0.3 µM, 24 h): 0.65% | drug-induced phospholipidosis (A549-ACE2 [8]; 0.3 µM, 48 h): 2.45% | drug-induced phospholipidosis (A549-ACE2 [8]; 0.3 µM, 72 h): 7% | morphology score ([9]; 0.3 µM): 0.09 | morphology score ([9]; 3 µM): -0.03 | relative viability EC50 (U2OS [10]): 292 nM | relative viability EC50 (HepG2 [11]): 0.239 µM | relative viability EC50 (Vero E6 [12]): 0.293 µM | relative viability EC50 (Calu-3 [13]): 503 nM | relative viability EC50 (Caco-2 [14]): 0.313 µM | cell viability (U2OS [15]; 1 nM): 101% | cell viability (U2OS [15]; 10 nM): 96.7% | cell viability (U2OS [15]; 100 nM): 96.6% | cell viability (U2OS [15]; 1000 nM): 0.1% | cell viability (U2OS [15]; 10000 nM): -0.3% | cell viability (HepG2 [16]; 1 nM): 94.7% | cell viability (HepG2 [16]; 10 nM): 107% | cell viability (HepG2 [16]; 100 nM): 87.4% | cell viability (HepG2 [16]; 1000 nM): 4% | cell viability (HepG2 [16]; 10000 nM): -0.2% | cell viability (Vero E6 [17]; 1 nM): 98.6% | cell viability (Vero E6 [17]; 10 nM): 107% | cell viability (Vero E6 [17]; 100 nM): 92.3% | cell viability (Vero E6 [17]; 1000 nM): 5.5% | cell viability (Vero E6 [17]; 10000 nM): -0.3% | cell viability (Calu-3 [18]; 1 nM): 107% | cell viability (Calu-3 [18]; 10 nM): 124% | cell viability (Calu-3 [18]; 100 nM): 117% | cell viability (Calu-3 [18]; 1000 nM): 12.8% | cell viability (Calu-3 [18]; 10000 nM): 0% | cell viability (Caco-2 [19]; 1 nM): 86.4% | cell viability (Caco-2 [19]; 10 nM): 88.7% | cell viability (Caco-2 [19]; 100 nM): 85.9% | cell viability (Caco-2 [19]; 1000 nM): 14.1% | cell viability (Caco-2 [19]; 10000 nM): -0.2%

COc1cccc([C@@H](C)NCCCc2ccccc2Cl)c1 [tecalcet]
cell count ([1]; 0.3 µM): 97% | cell count ([1]; 3 µM): 105% | cell count ([1]; 10 µM): 116% | cell count ([1]; 30 µM): 112% | drug sensitivity score (U2OS [2]): 0 | drug sensitivity score (HepG2 [3]): 0.2 | drug sensitivity score (Vero E6 [4]): 0 | drug sensitivity score (Caco-2 [6]): 0.2 | phospholipidosis EC50 (A549-ACE2 [20]; 24 h): 6.31 µM | phospholipidosis EC50 (A549-ACE2 [20]; 48 h): 8.26 µM | phospholipidosis EC50 (A549-ACE2 [20]; 72 h): 11.4 µM | SARS-CoV-2 infection rate ([7]; 0.3 µM): 111% | SARS-CoV-2 infection rate ([7]; 3 µM): 84% | SARS-CoV-2 infection rate ([7]; 10 µM): 52% | SARS-CoV-2 infection rate ([7]; 30 µM): 10% | drug-induced phospholipidosis (A549-ACE2 [8]; 0.3 µM, 24 h): 3.6% | drug-induced phospholipidosis (A549-ACE2 [8]; 0.3 µM, 48 h): 5% | drug-induced phospholipidosis (A549-ACE2 [8]; 0.3 µM, 72 h): 7.69% | drug-induced phospholipidosis (A549-ACE2 [8]; 0.833333 µM, 24 h): 1.52% | drug-induced phospholipidosis (A549-ACE2 [8]; 0.833333 µM, 48 h): 4.11% | drug-induced phospholipidosis (A549-ACE2 [8]; 0.833333 µM, 72 h): 2.06% | drug-induced phospholipidosis (A549-ACE2 [8]; 3.33333 µM, 24 h): 14.2% | drug-induced phospholipidosis (A549-ACE2 [8]; 3.33333 µM, 48 h): 18.9% | drug-induced phospholipidosis (A549-ACE2 [8]; 3.33333 µM, 72 h): 15.2% | drug-induced phospholipidosis (A549-ACE2 [8]; 6.66667 µM, 24 h): 49.8% | drug-induced phospholipidosis (A549-ACE2 [8]; 6.66667 µM, 48 h): 41.5% | drug-induced phospholipidosis (A549-ACE2 [8]; 6.66667 µM, 72 h): 34.4% | drug-induced phospholipidosis (A549-ACE2 [8]; 10 µM, 24 h): 74.2% | drug-induced phospholipidosis (A549-ACE2 [8]; 10 µM, 48 h): 67.1% | drug-induced phospholipidosis (A549-ACE2 [8]; 10 µM, 72 h): 61.6% | drug-induced phospholipidosis (A549-ACE2 [8]; 30 µM, 24 h): 90% | drug-induced phospholipidosis (A549-ACE2 [8]; 30 µM, 48 h): 98.2% | drug-induced phospholipidosis (A549-ACE2 [8]; 30 µM, 72 h): 117% | morphology score ([9]; 0.3 µM): -0.35 | morphology score ([9]; 3 µM): 0.47 | morphology score ([9]; 10 µM): 0.9 | morphology score ([9]; 30 µM): 0.78 | relative viability EC50 (U2OS [10]): > 10000 nM | relative viability EC50 (HepG2 [11]): > 10 µM | relative viability EC50 (Vero E6 [12]): > 10 µM | relative viability EC50 (Caco-2 [14]): > 10 µM | cell viability (U2OS [15]; 1 nM): 101% | cell viability (U2OS [15]; 10 nM): 97.6% | cell viability (U2OS [15]; 100 nM): 101% | cell viability (U2OS [15]; 1000 nM): 102% | cell viability (U2OS [15]; 10000 nM): 90.2% | cell viability (HepG2 [16]; 1 nM): 92.9% | cell viability (HepG2 [16]; 10 nM): 101% | cell viability (HepG2 [16]; 100 nM): 101% | cell viability (HepG2 [16]; 1000 nM): 108% | cell viability (HepG2 [16]; 10000 nM): 83.1% | cell viability (Vero E6 [17]; 1 nM): 108% | cell viability (Vero E6 [17]; 10 nM): 103% | cell viability (Vero E6 [17]; 100 nM): 101% | cell viability (Vero E6 [17]; 1000 nM): 101% | cell viability (Vero E6 [17]; 10000 nM): 96.2% | cell viability (Caco-2 [19]; 1 nM): 101% | cell viability (Caco-2 [19]; 10 nM): 94.8% | cell viability (Caco-2 [19]; 100 nM): 94.5% | cell viability (Caco-2 [19]; 1000 nM): 92.4% | cell viability (Caco-2 [19]; 10000 nM): 86.3%

COc1cc(/C=C2\CCC/C(=C\c3ccc(O)c(OC)c3)C2=O)ccc1O [cyclovalone]
cell count ([1]; 0.3 µM): 99% | cell count ([1]; 3 µM): 97% | cell count ([1]; 10 µM): 80% | cell count ([1]; 30 µM): 31% | drug sensitivity score (U2OS [2]): 18.4 | drug sensitivity score (HepG2 [3]): 0 | drug sensitivity score (Vero E6 [4]): 0 | drug sensitivity score (Calu-3 [5]): 2.2 | drug sensitivity score (Caco-2 [6]): 0 | SARS-CoV-2 infection rate ([7]; 0.3 µM): 96% | SARS-CoV-2 infection rate ([7]; 3 µM): 103% | SARS-CoV-2 infection rate ([7]; 10 µM): 98% | SARS-CoV-2 infection rate ([7]; 30 µM): 21% | drug-induced phospholipidosis (A549-ACE2 [8]; 0.3 µM, 24 h): 3.68% | drug-induced phospholipidosis (A549-ACE2 [8]; 0.3 µM, 48 h): 2.15% | drug-induced phospholipidosis (A549-ACE2 [8]; 0.3 µM, 72 h): 2.61% | drug-induced phospholipidosis (A549-ACE2 [8]; 0.833333 µM, 24 h): 3.84% | drug-induced phospholipidosis (A549-ACE2 [8]; 0.833333 µM, 48 h): 1.38% | drug-induced phospholipidosis (A549-ACE2 [8]; 0.833333 µM, 72 h): -0.476% | drug-induced phospholipidosis (A549-ACE2 [8]; 3.33333 µM, 24 h): 17.9% | drug-induced phospholipidosis (A549-ACE2 [8]; 3.33333 µM, 48 h): 12.4% | drug-induced phospholipidosis (A549-ACE2 [8]; 3.33333 µM, 72 h): 7.23% | drug-induced phospholipidosis (A549-ACE2 [8]; 6.66667 µM, 24 h): 21.4% | drug-induced phospholipidosis (A549-ACE2 [8]; 10 µM, 24 h): 23.9% | drug-induced phospholipidosis (A549-ACE2 [8]; 30 µM, 24 h): 23.4% | morphology score ([9]; 0.3 µM): 0.08 | morphology score ([9]; 3 µM): 0.06 | morphology score ([9]; 10 µM): 0.05 | morphology score ([9]; 30 µM): 0.46 | relative viability EC50 (U2OS [10]): 293 nM | relative viability EC50 (HepG2 [11]): > 10 µM | relative viability EC50 (Vero E6 [12]): > 10 µM | relative viability EC50 (Caco-2 [14]): > 10 µM | cell viability (U2OS [15]; 1 nM): 96.1% | cell viability (U2OS [15]; 10 nM): 101% | cell viability (U2OS [15]; 100 nM): 97% | cell viability (U2OS [15]; 1000 nM): -0.3% | cell viability (U2OS [15]; 10000 nM): 22.4% | cell viability (HepG2 [16]; 1 nM): 88.9% | cell viability (HepG2 [16]; 10 nM): 95.2% | cell viability (HepG2 [16]; 100 nM): 99% | cell viability (HepG2 [16]; 1000 nM): 92.8% | cell viability (HepG2 [16]; 10000 nM): 90.4% | cell viability (Vero E6 [17]; 1 nM): 103% | cell viability (Vero E6 [17]; 10 nM): 91.9% | cell viability (Vero E6 [17]; 100 nM): 99.1% | cell viability (Vero E6 [17]; 1000 nM): 84.1% | cell viability (Vero E6 [17]; 10000 nM): 108% | cell viability (Calu-3 [18]; 1 nM): 93% | cell viability (Calu-3 [18]; 10 nM): 100% | cell viability (Calu-3 [18]; 100 nM): 105% | cell viability (Calu-3 [18]; 1000 nM): 98.9% | cell viability (Calu-3 [18]; 10000 nM): 59.3% | cell viability (Caco-2 [19]; 1 nM): 93% | cell viability (Caco-2 [19]; 10 nM): 102% | cell viability (Caco-2 [19]; 100 nM): 100% | cell viability (Caco-2 [19]; 1000 nM): 96.1% | cell viability (Caco-2 [19]; 10000 nM): 101%
